Test results from PubChem BioAssay (NCI).
Several values for one entry are separate records, joined by “and”; a condition that tells them apart may be missing. Equal values may be shown once.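 A five-concentration, 48-hour dose response in 96-well plates underlies each endpoint, interpolated linearly between surrounding concentrations. GI50 marks 50% less growth. At the TGI there is no net growth.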

Columns and labels:
Experiment in all cases: NCI tumour cell line growth inhibition, 48 h
SW-620 colon = tested on: SW-620 colon
T-47D breast = tested on: T-47D breast
NCI-H23 lung = tested on: NCI-H23 lung
TK-10 renal = tested on: TK-10 renal
MDA-MB-231 breast = tested on: MDA-MB-231 breast
MALME-3M melanoma = tested on: MALME-3M melanoma
BT-549 breast = tested on: BT-549 breast
786-0 renal = tested on: 786-0 renal
SR leukemia = tested on: SR leukemia
K-562 leukemia = tested on: K-562 leukemia

Structure (SMILES) | GI50 (SW-620 colon) | TGI (SW-620 colon) | GI50 (T-47D breast) | TGI (T-47D breast) | GI50 (NCI-H23 lung) | TGI (NCI-H23 lung) | GI50 (TK-10 renal) | TGI (TK-10 renal) | GI50 (MDA-MB-231 breast) | TGI (MDA-MB-231 breast) | GI50 (MALME-3M melanoma) | TGI (MALME-3M melanoma) | GI50 (BT-549 breast) | TGI (BT-549 breast) | GI50 (786-0 renal) | TGI (786-0 renal) | GI50 (SR leukemia) | TGI (SR leukemia) | GI50 (K-562 leukemia) | TGI (K-562 leukemia)
C[C@@H]1Cc2c([nH]c3ccccc23)[C@@H](c2c(F)cc(NC3CN(CCCF)C3)cc2F)N1CC(F)(F)CO | 3.28 µM | 13 µM | 1.06 µM | 18.5 µM | 11.9 µM | 25.6 µM | 14.4 µM | 29.3 µM | 5.24 µM | 20.8 µM | 1.77 µM | 3.72 µM | 2.05 µM | 4.04 µM | 8.68 µM | 24.7 µM | 3.83 µM | > 100 µM | 3.24 µM | 11.8 µM
CCCCCCCCCc1cc[n+](CC(=O)c2ccc([N+](=O)[O-])cc2)cc1 | 0.403 µM | 1.63 µM | 1.63 µM | 3.64 µM | 1.01 µM | 2.56 µM | 1.47 µM | 2.88 µM | 0.447 µM | 1.7 µM | 1.41 µM | 3.03 µM | 1.27 µM | 2.72 µM | 1.75 µM | 3.25 µM | 0.612 µM | 4.48 µM | 0.338 µM | 2.02 µM
COc1cc(Nc2ncc(F)c(Nc3ccc4c(n3)NC(=O)C(C)(C)O4)n2)cc(OC)c1OC | > 10 µM | > 10 µM |  | > 100 µM | 6.29 µM | > 10 µM | 0.677 µM | > 10 µM | 3.09 µM | > 10 µM | > 100 µM | > 100 µM | 3.24 µM | > 10 µM | 1.03 µM and 1.27 µM | > 100 µM | 2.71 µM and > 10 µM | > 100 µM | > 100 µM | > 100 µM
COc1ccc(C[C@@H]2NC[C@@H](O)[C@@H]2OC(C)=O)cc1 | 4.16 µM |  |  | 0.193 µM | 2.76 µM |  |  | 0.254 µM |  | 0.261 µM | 3.97 µM |  |  | 0.145 µM | 9 µM |  | 6.9 µM | > 100 µM | 1.1 µM | > 100 µM
O=C(O)CCC/C=C\C[C@H]1C=CC(=O)/C1=C/C[C@@H](O)CCc1cccc(C(F)(F)F)c1 | 3.1 µM | 10.1 µM | 2.82 µM | 17.5 µM | 2.25 µM | 6.37 µM | 4.21 µM | 9.82 µM | 5.19 µM | 21.9 µM | 4.75 µM | 19.3 µM | 2.83 µM | 11.3 µM | 2.95 µM | 6.61 µM | 0.604 µM | 7.22 µM | 2.24 µM | 10.1 µM
O=[N+]([O-])/C=C/c1cc2ccccc2[nH]1 |  | 34.5 µM |  | 33.9 µM |  | 30.2 µM |  | 32.2 µM |  | 36.9 µM |  | 59.8 µM |  | 29.5 µM |  | 27.9 µM |  | 26.8 µM |  | 52.8 µM
CN1CCN(c2ccc(Nc3nc(N)c(C(=O)c4ccc5c(c4)OCCO5)s3)cc2)CC1 | 3.63 µM | > 17.7 µM | 3.69 µM | 9.7 µM | 3.69 µM | 11.3 µM | 3.14 µM | 10.1 µM | 3.22 µM | 9.94 µM | 2.72 µM | 8.34 µM | 4.71 µM | 9.46 µM | 3.44 µM | 8.23 µM | 2.02 µM | 12.7 µM | 2.43 µM | 18.3 µM
Nc1ncnc2c1c(-c1cccc(OCc3ccccc3)c1)cn2C1CC(CN2CCC2)C1 (stereo unspecified) | 1.29 µM and 1.56 µM | 6.47 µM and > 10 µM | 2.84 µM and 2.79 µM | 12.1 µM and > 10 µM | 4.62 µM and 7.36 µM | 21.1 µM and > 10 µM | 2.02 µM and 2.85 µM | 7.74 µM and > 10 µM | 2.12 µM and 3.82 µM | 6.14 µM and > 10 µM | 0.433 µM and 1.33 µM | 1.96 µM and 3.04 µM | 2.57 µM and 5.84 µM | 6.91 µM and > 10 µM | 1.92 µM and 2.14 µM | 3.98 µM and 4.83 µM | 2.22 µM and 1.69 µM | 6.08 µM and 4.18 µM | 1.71 µM and 2.08 µM | 4.43 µM and 6.32 µM
